Calls of active or inactive are those of the source. The rule behind the calls is not given here.
Assays:
[1] = target: T1, Sterol regulatory element-binding protein 1 (Homo sapiens) (UniProt P36956); assay: Inhibition of SREBP-1c transcriptional activity in human HepG2 cells expressing LXRalpha/RXRalpha assessed as reduction in SRE-luciferase level pretreated with compound for 30 mins followed by T0901317 addition and measured after 12 hrs by Dual-Glo luciferase assay; format: cell-based; details: dose 2.5-5 µM, time 12.5 hrs
T1 sequence (whole entry): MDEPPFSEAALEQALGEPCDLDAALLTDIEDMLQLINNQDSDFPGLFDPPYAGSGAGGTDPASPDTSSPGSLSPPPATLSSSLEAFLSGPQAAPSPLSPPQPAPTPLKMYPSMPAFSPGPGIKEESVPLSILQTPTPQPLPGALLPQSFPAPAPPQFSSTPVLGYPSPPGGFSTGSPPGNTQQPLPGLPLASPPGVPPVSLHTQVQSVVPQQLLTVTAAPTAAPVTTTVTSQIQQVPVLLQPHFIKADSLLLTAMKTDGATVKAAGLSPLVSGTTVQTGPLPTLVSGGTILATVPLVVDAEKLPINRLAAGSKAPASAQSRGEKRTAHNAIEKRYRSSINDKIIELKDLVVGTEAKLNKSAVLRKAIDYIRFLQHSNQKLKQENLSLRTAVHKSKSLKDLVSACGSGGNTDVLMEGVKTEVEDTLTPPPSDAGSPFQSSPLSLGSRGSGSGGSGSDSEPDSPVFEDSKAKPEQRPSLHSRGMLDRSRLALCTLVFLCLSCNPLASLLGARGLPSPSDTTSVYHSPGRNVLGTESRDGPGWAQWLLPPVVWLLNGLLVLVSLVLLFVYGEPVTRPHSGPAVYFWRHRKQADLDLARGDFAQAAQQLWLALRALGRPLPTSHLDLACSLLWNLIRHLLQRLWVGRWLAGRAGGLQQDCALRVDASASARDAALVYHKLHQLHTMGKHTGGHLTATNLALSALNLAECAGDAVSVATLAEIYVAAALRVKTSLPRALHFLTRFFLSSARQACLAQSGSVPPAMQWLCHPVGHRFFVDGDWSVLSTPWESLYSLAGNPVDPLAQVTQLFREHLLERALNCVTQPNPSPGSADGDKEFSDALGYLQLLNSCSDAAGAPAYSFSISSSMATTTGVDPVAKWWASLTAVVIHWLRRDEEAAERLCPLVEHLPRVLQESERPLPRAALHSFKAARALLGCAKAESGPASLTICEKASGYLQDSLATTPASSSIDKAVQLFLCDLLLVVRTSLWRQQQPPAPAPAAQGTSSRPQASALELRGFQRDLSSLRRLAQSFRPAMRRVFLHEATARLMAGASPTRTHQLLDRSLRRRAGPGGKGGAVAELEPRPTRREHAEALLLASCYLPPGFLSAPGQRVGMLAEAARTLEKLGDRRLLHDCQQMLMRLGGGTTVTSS

HepG2 [2] = assay: Downregulation of SREBP-1c expression level in nucleus of human HepG2 cells at 10 uM pretreated with compound for 30 mins followed by T0901317 addition and measured after 12 hrs by immunoblot analysis; format: functional, cell-based; details: time 12.5 hrs
[3] = AUC last in 16 hrs fasted ICR mouse at 2 mg/kg, iv measured upto 8 hrs by LC-MS/MS analysis; format: ADME, organism-based; details: in vivo
Mus musculus [4] = assay: Anti-lipogenic activity against high fat died induced male C57BL/6J mouse obesity model assessed as downregulation of Acaca-gene level at 15 mg/kg, po administered three times per week and measured after 5 weeks by RT-qPCT analysis; format: functional, organism-based
[5] = Stability in human plasma measured after 120 mins by LC-MS/MS analysis; format: ADME, cell-free; details: read-out: Stability
[6] = Metabolic stability in human liver microsomes at 1 uM measured after 30 mins in presence of NADPH regeneration system by LC-MS/MS analysis; format: ADME, Microsome; details: read-out: Stability
[7] = Terminal half life in 16 hrs fasted ICR mouse at 20 mg/kg, po measured upto 8 hrs by LC-MS/MS analysis; format: ADME, organism-based; details: in vivo, read-out: beta t1/2 (converted)
[8] = Volume of distribution at steady state in 16 hrs fasted ICR mouse at 2 mg/kg, iv measured upto 8 hrs by LC-MS/MS analysis; format: ADME, organism-based; details: in vivo, read-out: Vdss
[9] = Terminal half life in 16 hrs fasted ICR mouse at 2 mg/kg, iv measured upto 8 hrs by LC-MS/MS analysis; format: ADME, organism-based; details: in vivo, read-out: beta t1/2 (converted)
Mus musculus [10] = assay: Anti-lipogenic activity against high fat died induced male C57BL/6J mouse obesity model assessed as reduction liver tissue size at 15 mg/kg, po administered three times per week and measured for 5 weeks; format: functional, organism-based
HepG2 [11] = assay: Downregulation of SREBP-1c expression level in human HepG2 cells pretreated with compound for 30 mins followed by T0901317 addition and measured after 12 hrs by RT-qPCR analysis; format: functional, cell-based; details: dose 5-10 µM, time 12.5 hrs
[12] = target: Voltage-gated inwardly rectifying potassium channel KCNH2 (Homo sapiens, UniProt Q12809); assay: Inhibition of human ERG expressing HEK cells by whole-cell patch clamp assay; format: toxicity, cell-based
Voltage-gated inwardly rectifying potassium channel KCNH2, sequence (Q12809 whole entry): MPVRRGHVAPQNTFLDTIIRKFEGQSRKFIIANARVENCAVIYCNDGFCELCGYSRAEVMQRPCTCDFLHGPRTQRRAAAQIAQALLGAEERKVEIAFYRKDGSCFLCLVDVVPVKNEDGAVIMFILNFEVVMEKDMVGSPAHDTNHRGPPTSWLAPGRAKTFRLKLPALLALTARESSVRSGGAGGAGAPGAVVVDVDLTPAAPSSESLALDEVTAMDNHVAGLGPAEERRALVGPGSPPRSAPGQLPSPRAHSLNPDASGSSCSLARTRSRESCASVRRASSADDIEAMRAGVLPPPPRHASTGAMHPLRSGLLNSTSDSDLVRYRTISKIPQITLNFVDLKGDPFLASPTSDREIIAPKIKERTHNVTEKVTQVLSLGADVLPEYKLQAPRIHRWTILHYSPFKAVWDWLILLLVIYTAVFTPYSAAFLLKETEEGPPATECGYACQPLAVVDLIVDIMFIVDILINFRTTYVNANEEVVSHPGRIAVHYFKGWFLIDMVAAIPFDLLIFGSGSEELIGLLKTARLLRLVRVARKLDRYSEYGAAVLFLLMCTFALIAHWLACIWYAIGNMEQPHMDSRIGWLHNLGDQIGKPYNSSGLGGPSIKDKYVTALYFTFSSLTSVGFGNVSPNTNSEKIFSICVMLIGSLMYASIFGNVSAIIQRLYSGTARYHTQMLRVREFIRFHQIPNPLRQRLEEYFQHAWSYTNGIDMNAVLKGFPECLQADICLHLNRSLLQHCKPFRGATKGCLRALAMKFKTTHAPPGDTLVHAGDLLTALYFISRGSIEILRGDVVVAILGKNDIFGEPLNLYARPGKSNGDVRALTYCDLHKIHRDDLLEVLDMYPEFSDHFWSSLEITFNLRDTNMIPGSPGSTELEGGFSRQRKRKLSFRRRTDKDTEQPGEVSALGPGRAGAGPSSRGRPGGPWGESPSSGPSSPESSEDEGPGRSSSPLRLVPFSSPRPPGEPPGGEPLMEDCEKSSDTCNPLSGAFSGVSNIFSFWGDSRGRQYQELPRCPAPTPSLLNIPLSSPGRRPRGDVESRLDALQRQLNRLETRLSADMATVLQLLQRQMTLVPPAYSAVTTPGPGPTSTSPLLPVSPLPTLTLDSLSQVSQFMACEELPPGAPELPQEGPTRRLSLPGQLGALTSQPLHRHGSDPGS

[13] = MRT infinity in 16 hrs fasted ICR mouse at 20 mg/kg, po measured upto 8 hrs by LC-MS/MS analysis; format: ADME, organism-based; details: in vivo
Mus musculus [14] = assay: Anti-lipogenic activity against high fat died induced male C57BL/6J mouse obesity model assessed as downregulation of Ccl2 mRNA level at 15 mg/kg, po administered three times per week and measured after 5 weeks by RT-qPCT analysis; format: functional, organism-based
Hepatocyte [15] = assay: Inhibition of LXR-induced fat accumulation in mouse Hepatocyte at 10 uM incubated for 30 mins followed by T0901317 addition by Oil red O staining based analysis; format: functional, cell-based
Hepatocyte [16] = assay: Inhibition of Fasn level in mouse hepatocyte at 10 uM preincubated with compound for 30 mins followed by T0901317 addition and measured after 12 hrs; format: functional, cell-based; details: time 12.5 hrs
HepG2 [17] = assay: Downregulation of SREBP-1 level in human HepG2 cells transfected with SIRT6 SiRNA at 10 uM preincubated for 30 mins followed by T0901317 addition and measured after 12 hrs; format: functional, cell-based; details: time 12.5 hrs
HepG2 [18] = assay: (§1) Downregulation of SREBP-1c mRNA expression in human HepG2 cells pretreated with compound for 30 mins followed by T0901317 addition and measured after 12 hrs by RT-qPCR analysis; format: functional, cell-based; details: dose 0.01-100 µM, time 12.5 hrs
[19] = as §1; format: functional, cell-based
HepG2 [20] = assay: Cytotoxicity against human HepG2 cells at 10 uM measured after 24 hrs by CCK-8 method relative to control; format: functional
HepG2 [21] = assay: Downregulation of ACLY gene expression in human HepG2 cells in presence of T0901317 by RNA sequencing analysis; format: functional, cell-based
HepG2 [22] = assay: Downregulation of LXRalpha expression level in human HepG2 cell lysate at 10 uM preincubated with compound for 30 mins followed by T0901317 addition and measured after 24 hrs by immunoblot analysis; format: functional, subcellular; details: time 24.5 hrs
HepG2 [23] = assay: Downregulation of SREBP-1c expression level in human HepG2 cells at 5 to 10 uM pretreated with compound for 30 mins followed by GW3965 addition and measured after 12 hrs by RT-qPCR analysis; format: functional, cell-based; details: dose 5-10 µM, time 12.5 hrs

inhibition [1]: Dose-dependent-effect
AUC(0-t) at 8 h [3]: 2370 ng·h/mL
remaining at 2 h [5]: 94.6%
remaining at 0.5 h, 1 µM [6]: 34.2%
half-life [7]: 1.4 h
Vd [8]: 1.1 L/kg
half-life [9]: 1.4 h
MRT inf [13]: 1.6 h
IC50 [19]: 2.5 µM
SMILES: COc1ccccc1Nc1c(N[C@H]2CC[C@H](Oc3ccc([N+](=O)[O-])cc3)CC2)c(=O)c1=O
Activity (HepG2 [2]): Active
Activity (Mus musculus [4]): Active
Activity (Mus musculus [10]): Active
Activity (HepG2 [11]): Dose-dependent-effect
IC50 [12]: 33.2 µM
Activity (Mus musculus [14]): Active
inhibition (Hepatocyte [15]): Active
inhibition (Hepatocyte [16]): Active
Activity (HepG2 [17]): inactive
Activity (HepG2 [18]): Dose-dependent-effect
Activity (HepG2 [20]): 90.3%
Activity (HepG2 [21]): Active
Activity (HepG2 [22]): Active
Activity (HepG2 [23]): Active
